Laboratory results as given in ChEMBL document CHEMBL4613210, “Tacrines for Alzheimer's disease therapy. III. The PyridoTacrines” (Eur J Med Chem, 2019).

Key:
Acetylcholinesterase [1] = molecular target: Acetylcholinesterase (Electrophorus electricus, UniProt O42275)
Description: Inhibition of electric eel AChE

[2] = molecular target: Voltage-gated calcium channel
Description: Inhibition of VGCC (unknown origin)

Cholinesterase [3] = molecular target: T1, Cholinesterase (Homo sapiens, UniProt P06276)
Description: Inhibition of BuChE (unknown origin)

Cholinesterase [4] = molecular target: T1, Cholinesterase; remark: listed apart in the source
Description: Inhibition of human serum BuChE using butyrylthiocholine iodide as substrate by Ellman's methods

Cholinesterase [5] = molecular target: T1, Cholinesterase; test: Inhibition of human BuChE
Acetylcholinesterase [6] = molecular target: T2, Acetylcholinesterase (Bos taurus, UniProt P23795); test: Inhibition of bovine erythrocytes AChE using acetylthiocholine iodide as substrate by Ellman's methods
T2 sequence (P23795 whole entry): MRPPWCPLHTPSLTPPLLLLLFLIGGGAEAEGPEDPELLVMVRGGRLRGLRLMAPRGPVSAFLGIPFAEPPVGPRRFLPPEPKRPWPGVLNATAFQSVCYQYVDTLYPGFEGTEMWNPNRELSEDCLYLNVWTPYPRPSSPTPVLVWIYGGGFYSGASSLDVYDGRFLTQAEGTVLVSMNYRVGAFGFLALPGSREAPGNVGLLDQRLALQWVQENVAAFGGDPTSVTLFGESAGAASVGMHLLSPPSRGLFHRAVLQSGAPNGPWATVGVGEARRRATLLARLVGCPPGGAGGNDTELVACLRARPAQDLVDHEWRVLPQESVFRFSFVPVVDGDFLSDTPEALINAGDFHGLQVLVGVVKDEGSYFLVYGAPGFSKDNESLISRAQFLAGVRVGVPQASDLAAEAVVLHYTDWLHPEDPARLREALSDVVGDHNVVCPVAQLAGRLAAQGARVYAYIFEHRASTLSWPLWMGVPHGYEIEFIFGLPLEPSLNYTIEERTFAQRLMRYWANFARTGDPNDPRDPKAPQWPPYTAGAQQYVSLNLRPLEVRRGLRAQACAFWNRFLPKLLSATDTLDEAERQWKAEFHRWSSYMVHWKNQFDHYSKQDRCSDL

Acetylcholinesterase [7] = molecular target: Acetylcholinesterase (Homo sapiens, UniProt P22303); test: Inhibition of human AChE
Acetylcholinesterase (Homo sapiens, UniProt P22303), sequence (P22303 whole entry): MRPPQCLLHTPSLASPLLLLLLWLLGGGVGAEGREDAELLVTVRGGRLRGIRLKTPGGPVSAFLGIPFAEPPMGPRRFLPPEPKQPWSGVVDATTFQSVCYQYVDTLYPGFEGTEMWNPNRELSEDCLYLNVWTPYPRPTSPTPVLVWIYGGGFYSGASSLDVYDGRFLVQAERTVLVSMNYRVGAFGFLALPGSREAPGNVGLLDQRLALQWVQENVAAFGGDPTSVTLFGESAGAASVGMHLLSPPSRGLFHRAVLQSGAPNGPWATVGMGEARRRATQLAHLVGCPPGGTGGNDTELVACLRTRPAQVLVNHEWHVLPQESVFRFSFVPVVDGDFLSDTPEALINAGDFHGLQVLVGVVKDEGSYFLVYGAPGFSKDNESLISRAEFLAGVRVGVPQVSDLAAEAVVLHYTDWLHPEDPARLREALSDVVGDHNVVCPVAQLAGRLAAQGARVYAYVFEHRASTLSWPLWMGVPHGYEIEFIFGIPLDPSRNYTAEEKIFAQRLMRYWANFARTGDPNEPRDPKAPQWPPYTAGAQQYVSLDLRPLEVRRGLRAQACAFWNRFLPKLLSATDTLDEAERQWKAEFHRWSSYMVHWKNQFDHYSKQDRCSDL

Acetylcholinesterase (Electrophorus electricus, UniProt O42275), sequence (O42275 whole entry): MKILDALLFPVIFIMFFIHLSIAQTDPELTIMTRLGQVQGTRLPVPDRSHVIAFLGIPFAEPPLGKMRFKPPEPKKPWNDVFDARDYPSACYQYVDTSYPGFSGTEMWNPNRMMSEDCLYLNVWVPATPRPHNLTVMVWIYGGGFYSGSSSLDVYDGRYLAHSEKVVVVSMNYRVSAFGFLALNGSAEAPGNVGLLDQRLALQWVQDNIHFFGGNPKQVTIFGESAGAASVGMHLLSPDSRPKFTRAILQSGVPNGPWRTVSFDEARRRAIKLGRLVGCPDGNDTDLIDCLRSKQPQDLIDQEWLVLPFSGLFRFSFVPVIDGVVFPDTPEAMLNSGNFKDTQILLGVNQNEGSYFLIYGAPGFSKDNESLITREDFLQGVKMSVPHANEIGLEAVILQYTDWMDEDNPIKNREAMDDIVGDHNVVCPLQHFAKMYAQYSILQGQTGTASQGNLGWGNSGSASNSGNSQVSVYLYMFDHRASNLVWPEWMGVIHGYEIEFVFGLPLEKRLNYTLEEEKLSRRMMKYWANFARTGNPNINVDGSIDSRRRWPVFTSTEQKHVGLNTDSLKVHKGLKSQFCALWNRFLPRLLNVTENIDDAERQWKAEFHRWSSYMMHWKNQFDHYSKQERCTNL
T1 sequence (P06276 whole entry): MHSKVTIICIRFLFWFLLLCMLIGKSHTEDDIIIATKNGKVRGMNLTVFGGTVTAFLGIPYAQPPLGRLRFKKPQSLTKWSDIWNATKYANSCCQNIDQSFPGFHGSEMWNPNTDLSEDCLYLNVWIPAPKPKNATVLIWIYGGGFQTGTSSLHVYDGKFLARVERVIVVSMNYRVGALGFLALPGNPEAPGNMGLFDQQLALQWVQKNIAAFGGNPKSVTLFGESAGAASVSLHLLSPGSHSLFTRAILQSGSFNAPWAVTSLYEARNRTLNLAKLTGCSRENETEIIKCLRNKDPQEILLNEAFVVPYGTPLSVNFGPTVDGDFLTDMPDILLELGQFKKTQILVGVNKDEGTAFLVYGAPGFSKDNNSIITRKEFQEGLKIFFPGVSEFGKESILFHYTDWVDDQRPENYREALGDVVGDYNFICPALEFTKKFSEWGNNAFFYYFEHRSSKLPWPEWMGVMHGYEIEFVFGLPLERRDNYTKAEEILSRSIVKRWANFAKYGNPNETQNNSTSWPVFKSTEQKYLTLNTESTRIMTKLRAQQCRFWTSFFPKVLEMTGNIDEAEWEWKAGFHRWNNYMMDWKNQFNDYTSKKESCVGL

Structure (SMILES)	IC50 (Acetylcholinesterase [1])	IC50 [2]	also measured
CCOC(=O)c1c(C)nc2nc3c(c(N)c2c1-c1ccc(Cl)cc1)CCCC3	1.3 µM	34 µM	IC50 (Cholinesterase [3]): 52 µM
CCOC(=O)C1=C(C)Oc2nc3c(c(N)c2C1c1ccc(OC)cc1)CCCC3 (racemic)	–	–	IC50 (Cholinesterase [4]): 6.2 µM; IC50 (Cholinesterase [5]): 6.2 µM; IC50 (Acetylcholinesterase [6]; read-out: IC50): 0.87 µM
CCOC(=O)c1c(C)nc2nc3c(c(N)c2c1-c1ccc(F)cc1)CCCC3	0.7 µM	38 µM	IC50 (Cholinesterase [3]): 12 µM
CCOC(=O)c1c(C)nc2nc3c(c(N)c2c1-c1ccccc1)CCCCC3	–	–	IC50 (Acetylcholinesterase [6]): 21 µM
Cc1nc2nc3c(c(N)c2c(-c2ccccc2)c1C(=O)OC(C)C)CCCC3	1.2 µM	10 µM	IC50 (Cholinesterase [3]): 12 µM
CCOC(=O)c1c(C)nc2nc3c(c(N)c2c1-c1ccc(F)cc1)CCCCC3	5.4 µM	17 µM	–
CCOC(=O)c1c(C)nc2nc3c(c(N)c2c1-c1ccccc1)CCCCCC3	17 µM	10 µM	–
COc1ccc(C2c3c(nc4c(c3N)CCCC4)Oc3ccc4ccccc4c32)cc1OC (racemic)	–	–	IC50 (Acetylcholinesterase [7]): 0.083 µM
CCOC(=O)c1c(C)nc2nc3c(c(N)c2c1-c1ccc(OC)c(OC)c1)CCCCC3	6.4 µM	9 µM	–
CCOC(=O)c1c(C)nc2nc3c(c(N)c2c1-c1ccc(OC)cc1)CCCCC3	–	–	IC50 (Cholinesterase [4]): 80.6 µM; IC50 (Acetylcholinesterase [6]; read-out: IC50): 1.3 µM
COc1cc(C2c3ccc(O)cc3Oc3nc4c(c(N)c32)CCCC4)cc(OC)c1OC (racemic)	–	–	IC50 (Acetylcholinesterase [6]; read-out: IC50): 0.041 µM
CCOC(=O)c1c(C)nc2nc3c(c(N)c2c1-c1ccc(OC)cc1)CCC3	–	–	IC50 (Acetylcholinesterase [6]; read-out: IC50): 14 µM
CCOC(=O)c1c(C)nc2nc3c(c(N)c2c1-c1ccc(OC)c(OC)c1)CCCC3	1.3 µM	26 µM	–
CCOC(=O)c1c(C)nc2nc3c(c(N)c2c1-c1cccc(OC)c1)CCCCC3	–	9 µM	–
CCOC(=O)c1c(C)nc2nc3c(c(N)c2c1-c1ccc(OC)cc1)CCCC3	–	–	IC50 (Acetylcholinesterase [6]): 9 µM
CCOC(=O)c1c(C)nc2nc3c(c(N)c2c1-c1ccc(OC)cc1)CCCCCC3	17 µM	20 µM	–
CCOC(=O)c1c(C)nc2nc3c(c(N)c2c1-c1ccccc1OC)CCCCC3	22 µM	17 µM	–
CCOC(=O)c1c(C)nc2nc3c(c(N)c2c1-c1cccc([N+](=O)[O-])c1)CCCC3	0.9 µM	18 µM	IC50 (Cholinesterase [3]): 21 µM
CCOC(=O)c1c(C)nc2nc3c(c(N)c2c1-c1ccc(Cl)cc1)CCCCC3	19 µM	27 µM	–
CCOC(=O)c1c(C)nc2nc3c(c(N)c2c1-c1ccccc1)CCC3	–	–	IC50 (Acetylcholinesterase [6]): 11.9 µM
CCOC(=O)c1c(C)nc2nc3c(c(N)c2c1-c1cccc(OC)c1)CCCC3	1.2 µM	15 µM	IC50 (Cholinesterase [3]): 31 µM
CCOC(=O)c1c(C)nc2nc3c(c(N)c2c1-c1ccc(C)cc1)CCCCC3	13 µM	24 µM	–
CCOC(=O)c1c(C)nc2nc3c(c(N)c2c1-c1ccc([N+](=O)[O-])cc1)CCCCC3	14 µM	13 µM	–
CCOC(=O)c1c(C)nc2nc3c(c(N)c2c1-c1ccccc1)CCCC3	–	20 µM	IC50 (Cholinesterase [4]): 5 µM; IC50 (Acetylcholinesterase [6]): 0.82 µM; IC50 (Cholinesterase [3]): 5 µM
